Patent publication US20230192720A1, “MACROCYCLIC COMPOUNDS” (ZENO MANAGEMENT, INC., priority 2019, published 2023)

Tested on: NCI-H929 cells
Test: NCI-H929 cell proliferation assay (CellTiter-Glo)
Type: cell-based
Conditions: 72 h compound treatment
Procedure: NCI-H929 Cell Proliferation Assay
Cell proliferation was measured using the CellTiter-Glo® Luminescent Cell Viability Assay. The assay involved the addition of a single reagent (CellTiter-Glo® Reagent) directly to cells cultured in serum-supplemented medium. NCI-H929 (ATCC CRL-9068) cells were cultured according to ATCC recommendations and were seeded at 3,000 cells per well.
Each compound evaluated was prepared as a DMSO stock solution (10 mM). Compounds were tested in duplicate on each plate, with a 10-point serial dilution curve (1:3 dilution). Compound treatment ([…]) was added from the compound dilution plate to the cell plate. The highest compound concentration was 10 μM (final), with a 0.1% final DMSO concentration. Plates were then incubated at 37° C., 5% CO2. After 72 h of compound treatment, cell plates were equilibrated at rt for approximately 30 mins. An equi-volume amount of CellTiter-Glo® Reagent (40 μL) was added to each well. Plates were mixed for 2 mins on an orbital shaker to induce cell lysis and then incubated at rt for 10 mins to stabilize the luminescent signal. Luminescence was recorded using an Envision plate reader according to CellTiter-Glo protocol. IC50 of each compound was calculated using GraphPad Prism by nonlinear regression analysis.

Cc1nn(C23CC(C2)C3)c2c1-c1c(F)ccc3c(c(C(=O)O)n(C)c13)CCCOc1cc(cc3c1NCCC3)SCc1cc(nn1C)CSC2 (atropisomer, axis not shown; (Ra)) [Example 10A, (Ra)-(+)-(Z)-2^1-(Bicyclo[1.1.1]pentan-1-yl)-1^6-fluoro-1^1,2^3,6^1-trimethyl-9^1,9^2,9^3,9^4-tetrahydro-1^1H,2^1H,6^1H-10-oxa-4,8-dithia-9(6,8)-quinolina-1(7,3)-indola-2(4,5),6(3,5)-dipyrazolacyclotridecaphane-1^2-carboxylic acid]
IC50: ≥ 1 µM

CN1Cc2cc(n(C)n2)CSc2cc3c(c(c2)OCCCc2c(C(=O)O)n(C)c4c(c(Cl)ccc24)-c2c(nn4c2CCC4)C1)NCCC3 (atropisomer, axis not shown; (Sa)) [Example 3B, (Sa)-(−)-(Z)-1^6-Chloro-1^1,6^1,4-trimethyl-2^5,2^6,9^1,9^2,9^3,9^4-hexahydro-1^1H,2^4H,6^1H-10-oxa-8-thia-4-aza-9(6,8)-quinolina-1(7,3)-indola-2(3,2)-pyrrolo[1,2-b]pyrazola-6(3,5)-pyrazolacyclotridecaphane-1^2-carboxylic acid]
IC50: ≤ 0.1 µM

Cn1nc2cc1CSc1cc3c(c(c1)OCCCc1c(C(=O)O)n(C)c4c(c(Cl)ccc14)-c1c(nn4c1CCCC4)CSC2)NCCC3 (atropisomer, axis not shown; (Sa)) [Example 2B, (Sa)-(−)-(Z)-1^6-Chloro-1^1,6^1-dimethyl-2^4,2^5,2^6,2^7,9^1,9^2,9^3,9^4-octahydro-1^1H,6^1H-10-oxa-4,8-dithia-9(6,8)-quinolina-2(3,2)-pyrazolo[1,5-a]pyridina-1(7,3)-indola-6(3,5)-pyrazolacyclotridecaphane-1^2-carboxylic acid]
IC50 (Homo sapiens, NCI-H929, 72 h): ≥ 1 µM

Cn1nc2cc1CSc1cc3c(c(c1)OCCCc1c(C(=O)O)n(C)c4c(c(Cl)ccc14)-c1c(nn4c1CCCC4)CNC2)NCCC3 (atropisomer, axis not shown) [Example 12B, (Sa)-(−)-(Z)-1^6-Chloro-1^1,6^1-dimethyl-2^4,2^5,2^6,2^7,9^1,9^2,9^3,9^4-octahydro-1^1H,6^1H-10-oxa-8-thia-4-aza-9(6,8)-quinolina-2(3,2)-pyrazolo[1,5-a]pyridina-1(7,3)-indola-6(3,5)-pyrazolacyclotridecaphane-1^2-carboxylic acid]
IC50: 0.1 to 1 µM

CN1Cc2cc(n(C)n2)CSc2cc3c(c(c2)OCCCc2c(C(=O)O)n(C)c4c(c(Cl)ccc24)-c2c(nn4c2CCC4)C1)NCCC3 (atropisomer, axis not shown; (Ra)) [Example 3A, (Ra)-(+)-(Z)-1^6-Chloro-1^1,6^1,4-trimethyl-2^5,2^6,9^1,9^2,9^3,9^4-hexahydro-1^1H,2^4H,6^1H-10-oxa-8-thia-4-aza-9(6,8)-quinolina-1(7,3)-indola-2(3,2)-pyrrolo[1,2-b]pyrazola-6(3,5)-pyrazolacyclotridecaphane-1^2-carboxylic acid]
IC50: ≥ 1 µM

Cc1nn(C23CC(C2)C3)c2c1-c1c(F)ccc3c(c(C(=O)O)n(C)c13)CCCOc1cc(cc3c1NCCC3)SCc1cc(nn1C)CSC2 (atropisomer, axis not shown; (Sa)) [Example 10B, (Sa)-(−)-(Z)-2^1-(Bicyclo[1.1.1]pentan-1-yl)-1^6-fluoro-1^1,2^3,6^1-trimethyl-9^1,9^2,9^3,9^4-tetrahydro-1^1H,2^1H,6^1H-10-oxa-4,8-dithia-9(6,8)-quinolina-1(7,3)-indola-2(4,5),6(3,5)-dipyrazolacyclotridecaphane-1^2-carboxylic acid]
IC50: ≤ 0.1 µM

CN1Cc2cc(n(C)n2)CCc2cc3c(c(c2)OCCCc2c(C(=O)O)n(C)c4c(c(Cl)ccc24)-c2c(nn4c2CCC4)C1)NCCC3 (atropisomer, axis not shown; (Ra)) [Example 5A, (Ra)-(+)-(Z)-1^6-Chloro-1^1,6^1,4-trimethyl-2^5,2^6,9^1,9^2,9^3,9^4-hexahydro-1^1H,2^4H,6^1H-10-oxa-4-aza-9(6,8)-quinolina-1(7,3)-indola-2(3,2)-pyrrolo[1,2-b]pyrazola-6(3,5)-pyrazolacyclotridecaphane-1^2-carboxylic acid]
IC50: ≤ 0.1 µM

CN1Cc2cc(n(C)n2)CCc2cc3c(c(c2)OCCCc2c(C(=O)O)n(C)c4c(c(Cl)ccc24)-c2c(nn4c2CCCC4)C1)NCCC3 (atropisomer, axis not shown; (Ra)) [Example 6A, (Ra)-(+)-(Z)-1^6-Chloro-1^1,6^1,4-trimethyl-2^4,2^5,2^6,2^7,9^1,9^2,9^3,9^4-octahydro-1^1H,6^1H-10-oxa-4-aza-9(6,8)-quinolina-2(3,2)-pyrazolo[1,5-a]pyridina-1(7,3)-indola-6(3,5)-pyrazolacyclotridecaphane-1^2-carboxylic acid]
IC50: ≤ 0.1 µM

Cn1nc2cc1CSc1cc3c(c(c1)OCCCc1c(C(=O)O)n(C)c4c(c(F)ccc14)-c1c(nn4c1CCCC4)CSC2)NCCC3 (atropisomer, axis not shown; (Ra)) [Example 8A, (Ra)-(+)-(Z)-1^6-Fluoro-1^1,6^1-dimethyl-2^4,2^5,2^6,2^7,9^1,9^2,9^3,9^4-octahydro-1^1H,6 ^1H-10-oxa-4,8-dithia-9(6, 8)-quinolina-2(3,2)-pyrazolo[1,5-a]pyridina-1(7,3)-indola-6(3,5)-pyrazolacyclotridecaphane-1^2-carboxylic acid]
IC50: ≥ 1 µM

Cc1nn(C23CC(C2)C3)c2c1-c1c(Cl)ccc3c(c(C(=O)O)n(C)c13)CCCOc1cc(cc3c1NCCC3)SCc1cc(nn1C)CSC2 (atropisomer, axis not shown; (Sa)) [Example 9B, (Sa)-(−)-(Z)-2^1-(Bicyclo[1.1.1]pentan-1-yl)-1^6-chloro-1^1,2^3,6^1-trimethyl-9^1,9^2,9^3,9^4-tetrahydro-1^1H,2^1H,6^1H-10-oxa-4,8-dithia-9(6,8)-quinolina-1(7,3)-indola-2(4,5),6(3,5)-dipyrazolacyclotridecaphane-1^2-carboxylic acid]
IC50: ≤ 0.1 µM

CN1Cc2cc(n(C)n2)CSc2cc3c(c(c2)OCCCc2c(C(=O)O)n(C)c4c(c(Cl)ccc24)-c2c(nn4c2CCCC4)C1)NCCC3 (atropisomer, axis not shown; (Ra)) [Example 4A, (Ra)-(+)-(Z)-1^6-Chloro-1^1,6^1,4-trimethyl-2^4,2^5,2^6,2^7,9^1,9^2,9^3,9^4-octahydro-1^1H,6^1H-10-oxa-8-thia-4-aza-9(6,8)-quinolina-2(3,2)-pyrazolo[1,5-a]pyridina-1(7,3)-indola-6(3,5)-pyrazolacyclotridecaphane-1^2-carboxylic acid]
IC50: ≥ 1 µM

Cn1nc2cc1CSc1cc3c(c(c1)OCCCc1c(C(=O)O)n(C)c4c(c(Cl)ccc14)-c1c(nn4c1CCCC4)CNC2)NCCC3 (atropisomer, axis not shown; (Ra)) [Example 12A, (Ra)-(+)-(Z)-1^6-Chloro-1^1,6^1-dimethyl-2^4,2^5,2^6,2^7,9^1,9^2,9^3,9^4-octahydro-1^1H,6^1H-10-oxa-8-thia-4-aza-9(6,8)-quinolina-2(3,2)-pyrazolo[1,5-a]pyridina-1(7,3)-indola-6(3,5)-pyrazolacyclotridecaphane-1^2-carboxylic acid]
IC50: ≥ 1 µM

Cn1nc2cc1CSc1cc3c(c(c1)OCCCc1c(C(=O)O)n(C)c4c(c(F)ccc14)-c1c(nn4c1CCC4)CSC2)NCCC3 (atropisomer, axis not shown; (Ra)) [Example 7A, (Ra)-(+)-(Z)-1^6-Fluoro-1^1,6^1-dimethyl-2^5,2^6,9^1,9^2,9^3,9^4-hexahydro-1^1H,2^4H,6^1H-10-oxa-4,8-dithia-9(6,8)-quinolina-1(7,3)-indola-2(3,2)-pyrrolo[1,2-b]pyrazola-6(3,5)-pyrazolacyclotridecaphane-1^2-carboxylic acid]
IC50 (Homo sapiens, NCI-H929, 72 h): 0.1 to 1 µM

Cn1nc2cc1CSc1cc3c(c(c1)OCCCc1c(C(=O)O)n(C)c4c(c(F)ccc14)-c1c(nn4c1CCCC4)CSC2)NCCC3 (atropisomer, axis not shown; (Sa)) [Example 8B, (Sa)-(−)-(Z)-1^6-Fluoro-1^1,6^1-dimethyl-2^4,2^5,2^6,2^7,9^1,9^2,9^3,9^4-octahydro-1^1H,6^1H-10-oxa-4,8-dithia-9(6, 8)-quinolina-2(3,2)-pyrazolo[1,5-a]pyridina-1(7,3)-indola-6(3,5)-pyrazolacyclotridecaphane-1^2-carboxylic acid]
IC50: 0.1 to 1 µM

CCn1nc(C)c2c1CSCc1cc(n(C)n1)CSc1cc3c(c(c1)OCCCc1c(C(=O)O)n(C)c4c-2c(Cl)ccc14)NCCC3 (atropisomer, axis not shown; (Ra)) [Example 14A, (Ra)-(+)-(Z)-1^6-Chloro-2^1-ethyl-1^1,2^3,6^1-trimethyl-9^1,9^2,9^3,9^4-tetrahydro-1^1H,2^1H,6^1H-10-oxa-4,8-dithia-9(6,8)-quinolina-1(7,3)-indola-2(4,5),6(3,5)-dipyrazolacyclotridecaphane carboxylic acid]
IC50: ≤ 0.1 µM

Cc1c2c(nn1C)CSCc1cc(n(C)n1)CSc1cc(c3ccccc3c1)OCCCc1c(C(=O)O)n(C)c3c-2c(Cl)ccc13 [AZD5991, reference compound]
IC50 (Homo sapiens, NCI-H929, 72 h): ≤ 0.1 µM

CN1Cc2cc(n(C)n2)CCc2cc3c(c(c2)OCCCc2c(C(=O)O)n(C)c4c(c(Cl)ccc24)-c2c(nn4c2CCCC4)C1)NCCC3 (atropisomer, axis not shown; (Sa)) [Example 6B, (Sa)-(−)-(Z)-1^6-Chloro-1^1,6^1,4-trimethyl-2^4,2^5,2^6,2^7,9^1,9^2,9^3,9^4-octahydro-1^1H,6^1H-10-oxa-4-aza-9(6,8)-quinolina-2(3,2)-pyrazolo[1,5-a]pyridina-1(7,3)-indola-6(3,5)-pyrazolacyclotridecaphane-1^2-carboxylic acid]
IC50: ≥ 1 µM
